For 12 molecules, IC50 results are on record in US6903114B2, “Derivatives of naphthalene with COMT inhibiting activity” (Orion Corporation, priority 2000, dated 2005).

This assay concerns the target T1, S-COMT enzyme (Homo sapiens, UniProt P21964).
T1 sequence (P21964 1-221 isoform P21964-2): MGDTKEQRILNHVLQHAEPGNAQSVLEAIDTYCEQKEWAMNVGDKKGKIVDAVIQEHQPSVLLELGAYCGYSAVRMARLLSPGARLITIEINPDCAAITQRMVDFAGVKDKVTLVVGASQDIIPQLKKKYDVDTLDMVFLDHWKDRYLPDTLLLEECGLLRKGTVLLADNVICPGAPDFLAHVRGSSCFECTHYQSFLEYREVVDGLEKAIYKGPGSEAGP
The assay can be described thus: Determination of COMT activity (IC50). The class given is biochemical. As to conditions: S-COMT about 30 nM, 3 mM dopamine substrate, 0.05 mM AdoMet, 5 mM MgCl2, pH 7.4, 37° C., 15 min; HPLC. The protocol: EXPERIMENT I: Determination of COMT activity (IC50)
The determination of IC50 was performed by measuring the COMT activity in a test sample which contained S-COMT enzyme (about 30 nM), 3 mM dopamine (as the substrate of COMT), 5 mM magnesium chloride, 0.05 mM S-adenosyl-L-methionine (AdoMet) and a test compound of the invention at various concentrations in 0.1 M phosphate buffer, pH 7.4, at 37° C.
The reaction in the test sample was initiated by adding the dopamine substrate to the sample mixture and, after incubation for 15 min at 37° C., the reaction was stopped with 4 M perchloric acid and stabilized further 10 min in ice bath. Thereafter the precipitated proteins were removed by centrifugation (4000×G for 10 min). The activity of COMT enzyme was measured by determining the concentration of the reaction products, 3-methyldopamine and 4-methyldopamine, by HPLC. The results were calibrated with 3-methyldopamine standards. See also T. Lotta et al., Biochemistry, vol.34(13), 1995, p.4204. The IC50 value is the concentration of the test compound which causes a 50% decrease in COMT activity.
The IC50 is the midpoint of a concentration-inhibition curve. Low readings indicate greater potency, high ones weaker potency. Regarding `O=[N+]([O-])c1c(O)c(O)cc2ccccc12` [Example 1, 1-Nitronaphthalene-2,3-diol], the IC50 came to 0.03 µM.

`O=C(c1ccccc1)c1ccc2c([N+](=O)[O-])c(O)c(O)cc2c1` [Example 3, (6,7-Dihydroxy-5-nitro-naphthalen-2-yl)-phenyl-methanone] displayed an IC50 of 0.08 µM.

`CC(C)C(=O)c1ccc2c([N+](=O)[O-])c(O)c(O)cc2c1` [Example 4, 1-(6,7-Dihydroxy-5-nitro-naphthalen-2-yl)-2-methyl-propan-1-one] showed a half-inhibitory concentration (IC50) of 0.025 µM.

Take `CC(C)Cc1ccc2c([N+](=O)[O-])c(O)c(O)cc2c1` [Example 5, 6-Isobutyl-1-nitro-naphthalene-2,3-diol]: inhibition was half-maximal at 0.045 µM (IC50).

`O=C(O)c1ccc2c([N+](=O)[O-])c(O)c(O)cc2c1` [Example 7, 6,7-Dihydroxy-5-nitro-naphthalene-2-carboxylic Acid] yielded an IC50 of 0.03 µM.

Molecule `O=Cc1c(O)c(O)cc2ccccc12` [Example 8, 2,3-Dihydroxy-naphthalene-1-carbaldehyde] gave an IC50 of 0.2 µM.

In turn, `CCCCCCC(=O)c1ccc2c([N+](=O)[O-])c(O)c(O)cc2c1` [Example 9, 1-(6,7-Dihydroxy-5-nitro-naphthalen-2-yl)-heptan-1-one] gave an IC50 of 0.08 µM. Compared with the last molecule, the IC50 is about 2.5-fold lower.

For the molecule `O=[N+]([O-])c1ccc2c([N+](=O)[O-])c(O)c(O)cc2c1` [Example 10, 1,6-Dinitro-naphthalene-2,3-diol], the half-inhibitory concentration (IC50) is 0.015 µM.

Molecule `CCCN(CCC)S(=O)(=O)c1ccc2c([N+](=O)[O-])c(O)c(O)cc2c1` [Example 11, 6,7-Dihydroxy-5-nitro-naphthalene-2-sulfonic Acid Dipropylamide] yielded an IC50 of 0.025 µM.

`N#Cc1c(O)c(O)cc2ccccc12` [Example 13, 2,3-Dihydroxy-naphthalene-1-carbonitrile] yielded an IC50 of 0.1 µM.

`CN1CCN(C(=O)c2ccc3c([N+](=O)[O-])c(O)c(O)cc3c2)CC1` [Example 14, (6,7-Dihydroxy-5-nitro-naphthalen-2-yl)-(4-methyl-piperazin-1-yl)-methanone]: 0.015 µM corresponded to half-maximal inhibition (IC50).

The molecule `O=[N+]([O-])c1c(O)c(O)c(Br)c2ccncc12` [Example 15, 5-Bromo-6,7-dihydroxy-8-nitro-isoquinolinium; Bromide] showed an IC50 of 0.14 µM.
